In PubChem BioAssay (NCI):
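Results reflect a 48-hour exposure of cells in 96-well plates to compound at five concentrations. Here, GI50 denotes the concentration required for 50% inhibition of growth. TGI: total growth inhibition.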 Where a SMILES comes first, the peptide text is derived from it. The star is where a group is joined. Boc = CC(C)(C)OC(=O)*

Experiments:
Assay in all cases: NCI tumour cell line growth inhibition, 48 h
T-47D breast = test system: T-47D breast
HCT-15 colon = test system: HCT-15 colon
HS 578T breast = test system: HS 578T breast
MALME-3M melanoma = test system: MALME-3M melanoma
MDA-MB-435 = test system: MDA-MB-435
CCRF-CEM leukemia = test system: CCRF-CEM leukemia
UO-31 renal = test system: UO-31 renal
SF-268 CNS = test system: SF-268 CNS
SNB-75 CNS = test system: SNB-75 CNS
DU-145 prostate = test system: DU-145 prostate
TK-10 renal = test system: TK-10 renal
BT-549 breast = test system: BT-549 breast

SMILES	TGI (T-47D breast) [µM]	GI50 (HCT-15 colon) [µM]	TGI (HCT-15 colon) [µM]	GI50 (HS 578T breast) [µM]	TGI (HS 578T breast) [µM]	TGI (MALME-3M melanoma) [µM]	GI50 (MDA-MB-435) [µM]	TGI (MDA-MB-435) [µM]	GI50 (CCRF-CEM leukemia) [µM]	TGI (CCRF-CEM leukemia) [µM]	TGI (UO-31 renal) [µM]	GI50 (SF-268 CNS) [µM]	TGI (SF-268 CNS) [µM]	TGI (SNB-75 CNS) [µM]	TGI (DU-145 prostate) [µM]	TGI (TK-10 renal) [µM]	TGI (BT-549 breast) [µM]
NS(=O)(=O)c1ccc(/C=C/c2cccc(O)c2)cc1	87.4	22.8	> 100	61	> 100	> 100	25.8	> 100	16.1	> 100	64.2	65.6	> 100	99	> 100	93.7	–
O=C1CC(c2cccc(Cl)c2)n2cccc21 (stereo not given)	> 100	–	> 100	–	> 100	–	–	> 100	–	> 100	> 100	–	> 100	> 100	> 100	> 100	–
COc1cc2c(cc1OCCCC(=O)Nc1cc(C(=O)Nc3cc(C(=O)NCCCN(C)C)n(C)n3)n(C)n1)N=CC1CCCN1C2=O (stereo not given)	53	–	37.6	–	–	31.5	–	39	–	29.7	30.4	–	41.2	–	32.2	35.7	26.5
Clc1ccc(-c2nc(-c3ccc(Cl)cc3)[s+]s2)cc1	> 100	–	> 100	–	> 100	77.7	–	> 100	–	98.6	> 100	–	> 100	–	> 100	86.5	> 100
OC1CN=C2c3ccccc3C(O)(c3ccc(Cl)cc3)N2C1 (stereo not given)	> 100	–	–	–	> 100	> 100	–	> 100	–	> 100	> 100	–	> 100	91.9	> 100	65.7	–
O=C(c1ccco1)N(C(=S)N1CCN(c2ccccc2)CC1)c1ccccc1	–	–	> 100	–	–	> 100	–	–	–	> 100	> 100	–	> 100	> 100	–	> 100	–
CC1(C)CCOC(=O)C(Cl)CC1Cl (stereo not given)	> 100	–	> 100	–	> 100	> 100	–	> 100	–	> 100	–	–	> 100	–	> 100	> 100	–
Clc1ccc(OCc2nnc(CCCCCCCCc3nnc(COc4ccc(Cl)cc4Cl)o3)o2)c(Cl)c1	–	–	> 100	–	–	> 100	–	> 100	–	–	> 100	–	> 100	> 100	> 100	> 100	> 100
CC(NC(=O)C(NC(=O)OC(C)(C)C)C(C)C)C(=O)NCC(=O)O (stereo not drawn) (Boc-Val-Ala-Gly-OH; configuration not given here)	> 100	–	> 100	–	> 100	> 100	–	> 100	–	–	> 100	–	> 100	–	> 100	> 100	> 100
COc1cc(C(C#N)NNC(=O)c2ccccc2O)ccc1O (stereo not given)	–	–	> 100	–	–	> 100	–	–	–	> 100	3.28	–	> 100	8.46	–	> 100	–
O=S1(=O)c2ccccc2N2CCCc3cc(Cl)cc1c32	–	–	> 100	–	84.7	> 100	–	> 100	–	> 100	> 100	–	> 100	29.9	> 100	–	> 100
Nc1cc(CO)cc(Nc2c3ccccc3nc3occc23)c1	80.3	–	> 100	–	83.8	> 100	–	41.9	–	> 100	> 100	–	87.3	–	> 100	> 100	81.6
Cc1ccc(-n2c(C)nc3c2C(=O)c2ccccc2C3=O)cc1	–	–	> 100	–	–	51.5	–	–	–	> 100	> 100	–	> 100	> 100	–	> 100	–
Cc1nc2c(Br)cc(Br)cc2c(=O)n1-c1ccccc1N	–	–	> 100	–	> 100	> 100	–	> 100	–	> 100	83.8	–	> 100	87.3	> 100	–	87.6
Cc1cc2ccccc2c[n+]1CC(=O)CC([O-])(C(F)(F)F)C(F)(F)F	> 100	–	> 100	–	> 100	> 100	–	> 100	–	> 100	> 100	–	> 100	> 100	> 100	–	–
CC(Nc1cc(Cl)cc(Cl)c1)c1ccncc1 (stereo not given)	> 100	–	> 100	–	> 100	54.9	–	47.5	–	58	27.3	–	51.9	63.1	–	> 100	52.7

SMILES	TGI (T-47D breast) [µM]	GI50 (HCT-15 colon) [µM]	TGI (HCT-15 colon) [µM]	GI50 (HS 578T breast) [µM]	TGI (HS 578T breast) [µM]	TGI (MALME-3M melanoma) [µM]	GI50 (MDA-MB-435) [µM]	TGI (MDA-MB-435) [µM]	GI50 (CCRF-CEM leukemia) [µM]	TGI (CCRF-CEM leukemia) [µM]	TGI (UO-31 renal) [µM]	GI50 (SF-268 CNS) [µM]	TGI (SF-268 CNS) [µM]	TGI (SNB-75 CNS) [µM]	TGI (DU-145 prostate) [µM]	TGI (TK-10 renal) [µM]	TGI (BT-549 breast) [µM]
COC(=O)c1ccc(OCc2ccc3oc(=O)c(-c4ccccc4)nc3c2)cc1	–	–	> 100	–	–	> 100	–	–	–	72.7	> 100	–	> 100	> 100	–	> 100	–
COC(=O)CC1C2CC3C(C2=O)C13 (stereo not given)	> 100	–	> 100	–	> 100	> 100	–	> 100	–	> 100	> 100	–	> 100	> 100	> 100	> 100	–
CCCCNC(=S)Nc1nc(C(=O)NNS(=O)(=O)c2ccccc2)cs1	> 100	–	> 100	–	–	> 100	–	48.4	–	> 100	85.3	–	> 100	76.6	> 100	99.9	70.8
O=C1NC(N2CCOCC2)=N/C1=C\c1ccccc1O	> 100	–	> 100	–	> 100	> 100	–	> 100	–	> 100	> 100	–	> 100	> 100	> 100	> 100	–
CC[C@H]1C=CCC[C@@]2(C[C@@H]3CC[C@@H]4[C@H](C(=O)OCCCCCCCCCCCCCCCC(=O)N(CCCN)C[C@@H](O)CCN)[C@]5(CCC[C@@H](C)O5)NC(=[N+]34)N2)O1	5.56	–	> 10	–	2.88	1.26	–	0.469	–	–	1.64	–	2.41	–	> 10	4.52	2.61
CC(=O)O[C@H]1/C(=C/c2ccc(N(C)C)cc2)C[C@H]2[C@@H]3CC=C4C[C@@H](N5CCCC5)CC[C@]4(C)[C@H]3CC[C@]12C	> 100	–	> 100	–	> 100	> 100	–	–	–	–	> 100	–	> 100	> 100	> 100	> 100	> 100
O=C(CCCC(=O)N1CC(CCl)c2ccc([N+](=O)[O-])cc21)N1CC(CCl)c2ccc([N+](=O)[O-])cc21 (stereo not given)	> 100	–	> 100	–	–	–	–	> 100	–	> 100	> 100	–	> 100	–	> 100	> 100	> 100
Cc1nnc2c3c(-c4ccccc4)c(-c4ccccc4)oc3nc(N(C)C)n12	> 100	–	> 100	–	> 100	–	–	> 100	–	> 100	> 100	–	> 100	72.4	> 100	> 100	–
COc1ccc(-c2cc(-c3ccc(Nc4ccnc5cc(Cl)ccc45)cc3)nc(N)c2C#N)c2ccccc12	> 100	–	> 100	–	–	> 100	–	> 100	–	> 100	> 100	–	> 100	> 100	> 100	> 100	> 100
CN(C)CCCOC(=O)C(O)(Cc1ccccc1)C1CC1 (stereo not given)	> 100	–	> 100	–	> 100	> 100	–	> 100	–	> 100	–	–	> 100	> 100	> 100	> 100	–
CCN(CC)C(=O)CCCCCCCCC1CO1 (stereo not given)	–	–	> 100	–	> 100	> 100	–	> 100	–	> 100	> 100	–	> 100	> 100	> 100	> 100	–
COc1cccc(-c2cc(=O)c3cc(C)cnc3[nH]2)c1	> 100	–	–	–	> 100	> 100	–	0.0686	–	> 100	3.59	–	> 100	–	> 100	> 100	> 100
C=C(Br)CN(C#N)CC(=C)Br	> 100	–	> 100	–	> 100	> 100	–	> 100	–	> 100	> 100	–	> 100	> 100	> 100	> 100	–
Brc1ccc2c(c1)C1=C(CO2)Cc2ccccc2O1	33.2	–	38.4	–	–	38.2	–	45.1	–	> 100	30.6	–	41	43	38.6	37.2	33
CN(C)c1ccc(/C=C2\N=C(c3ccccc3)N(c3nc4c(Cl)cc(Cl)cc4s3)C2=O)cc1	> 100	–	> 100	–	> 100	–	–	67.6	–	23.6	> 100	–	> 100	–	> 100	> 100	> 100
O=C1CC(O)c2c(Cl)sc(Cl)c21 (stereo not given)	> 24.2	–	11.3	–	–	–	–	> 47.7	–	4.68	22.8	–	17.8	29.5	54.8	30.1	29.7
